Source: patent US20230172919A1, “AN INSULIN SENSITIZER FOR USE IN THE PREVENTION AND/OR TREATMENT OF THE DAMAGES CAUSED BY RETINAL DETACHMENT” (SORBONNE UNIVERSITE, priority 2020, published 2023)

Tests used:
[1] = tested on: PNA+CAR+ cones of C57BL/6J retinal explants; assay: Retinal explants culture, cone quantification; assay type: cell-based, mouse (C57BL/6J); details: 5-day retinal explants
Experimental: C57BL/6J retina were prepared and placed on polycarbonate filters floating on Dulbecco’s modified Eagle’s medium (DMEM, Thermo Fisher Scientific) with the photoreceptors facing down. For the experiment, retinal explants were cultured in high glucose (25 mM) DMEM alone or supplemented with human insulin (Umuline NPH), human insulin and insulin receptor inhibitor (Hydroxy-2-naphthalenylmethylphosphonic acid (HNMPA), Abcam) or vehicle (DMSO) at 37° C. […] For this reason, HNMPA was used at a concentration 10-fold higher than the IC50 (1 mM). Each culture medium was renewed every 36 hours and after 5 days, the retinal explants were carefully removed. Immunohistochemistry and cones quantification were then performed as described for retina below.
Eyes were enucleated, fixed in 4% paraformaldehyde for 1 hour at room temperature and sectioned at the limbus; the cornea and lens were discarded. […] The retinas were flat mounted and viewed with a fluorescence microscope (DM5500, Leica). […] Each cell population was manually counted in a masked fashion. IBA-1+ cells were quantified on flat mounts on the outer segment side of the detached retina while PNA+ cone arrestin+ cells were counted on confocal microscopy Z-stacks using ImageJ software.

[2] = tested on: RD-induced cone loss and subretinal IBA-1+ MPs in C57BL/6J mice; assay: Mouse model of RD (retinal detachment), retinal flat mount quantification; assay type: in vivo, mouse (C57BL/6J); details: for number of PNA+CAR+ cones (cone survival) / numbers of subretinal IBA1+ MPs: day 7 after RD, subretinal injection in diluted sodium hyaluronate (insulin 2 IU/ml, IGF-1 200 ng/ml, metformin 50 mg/ml), compared to PBS controls
Experimental: Wild-type (C57BL/6J) mice were purchased from Janvier Labs at the age of 8 weeks. Mice were housed in the animal facility under specific pathogen-free condition, in a 12 h/12 h light/dark (100-500 lux) cycle with water and normal diet food available ad libitum. All experimental protocols and procedures were approved by the local animal care ethics committee (N°APAFIS#5201-20160427103344).
RD was induced with a previously described method (Nakazawa et al., 2006, 2007a, 2011). Briefly, mice were anesthetized with an intraperitoneal injection of xylazine hydrochloride (10 mg/kg) and ketamine hydrochloride (100 mg/kg) and pupils were dilated with topical phenylephrine (5%) and tropicamide (0.5%). A 30-gauge needle was first used to create two sclerotomies 1.5 mm posterior to the limbus. A glass needle (with a […] manually beveled tip) connected to a Hamilton syringe filled with diluted sodium hyaluronate (Healon GV®, Alcon) was then introduced into the vitreous cavity through one of the sclerotomy. The tip of the needle was finally inserted into the subretinal space through a peripheral retinotomy and 4 µl of diluted sodium hyaluronate containing or not recombinant human TSP-1 (100 µg/ml, Biotechne), human insulin (2 IU/ml, Umuline NPH), recombinant IGF-1 (200 ng/ml, Biotechne) or metformin (50 mg/ml), was gently injected, detaching approximately two-third of the retina from the underlying RPE.
For treatment with rosiglitazone, mice received intraperitoneal injections of 10 mg/kg rosiglitazone or vehicle (5% DMSO) 3 days before and 4 to 7 days after RD induction.
Eyes with subretinal hemorrhage were excluded from analysis. Mice were sacrificed from 1 to 10 days following RD, according to the experiment.
Eyes were enucleated, fixed in 4% paraformaldehyde for 1 hour at room temperature and sectioned at the limbus; the cornea and lens were discarded. The retinas were peeled from the RPE/choroid/sclera and incubated overnight at 4° C. in PBS-1% triton with the following primary antibodies: peanut agglutinin Alexa fluor® 594 (Thermo Fisher Scientific; 1/100), rabbit polyclonal anti-human cone arrestin antibody (LUMIF-hCAR; 1:10000) and goat polyclonal anti-IBA1 (1/100). After few washes, the retinas were incubated for 2 hours at room temperature with appropriate Alexa Fluor® conjugated secondary antibodies (Thermo Fisher Scientific; 1:500) in PBS-1% triton and nuclei were counterstained with Hoechst (1:1000, Sigma Aldrich). The retinas were flat mounted and viewed with a fluorescence microscope (DM5500, Leica). Images centered on the area with the lowest number of PNA+ cone arrestin+ cells were captured with a confocal laser-scanning microscope (FV1000, Olympus) using a 40X lens. Each cell population was manually counted in a masked fashion. IBA-1+ cells were quantified on flat mounts on the outer segment side of the detached retina while PNA+ cone arrestin+ cells were counted on confocal microscopy Z-stacks using ImageJ software.

Compound	PNA+CAR+ cones after addition of insulin receptor inhibitor ([1]; high glucose DMEM with human insulin, HNMPA 1 mM, versus vehicle (DMSO))	number of PNA+CAR+ cones (cone survival) [2]	numbers of subretinal IBA1+ MPs [2]	number of infiltration of subretinal IBA-1+ MPs ([2]; day 7 of RD, daily intraperitoneal 10 mg/kg from 3 days before and throughout RD, versus vehicle (DMSO 5%))	cone survival (PNA+CAR+ cones) ([1]; high glucose (25 mM) DMEM, human insulin 5 mIU/ml, compared to the control condition)
O=P(O)(O)C(O)c1ccc2ccccc2c1 (stereo not drawn) [HNMPA, Hydroxy-2-naphthalenylmethylphosphonic acid, reference compound]	severe loss	–	–	–	–
CN(C)C(=N)N=C(N)N [metformin, reference compound]	–	increased	significantly decreased	–	–
CN(CCOc1ccc(CC2SC(=O)NC2=O)cc1)c1ccccn1 (stereo not drawn) [rosiglitazone, reference compound]	–	–	–	no effect	–
IGF-1: recombinant IGF-1 (Biotechne), insulin-like growth factor	–	no effect	no effect	–	–
insulin: human insulin (Umuline NPH)	–	very significantly increased	did not alter	–	significantly increased
